How the values were obtained:
Assay in all cases: relative viability (nuclei count vs DMSO), 5 days (fraction); higher = more cells survive
kb NB 142-70 + Alpelisib = compound: C1CSC2=C(C(=O)N1)SC3=C2C=C(C=C3)O [kb NB 142-70] + Cc1nc(NC(=O)N2CCC[C@H]2C(N)=O)sc1-c1ccnc(C(C)(C)C(F)(F)F)c1 [Alpelisib] (partner 2 µM)
Summary of the method: (§1)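 Lung cancer cell lines were pin-tool dosed in 1536-well plates on the day after seeding, with either a lone drug or a fixed anchor-drug dose plus five library-drug doses (not always all listed) in √10 steps. Nuclei were counted on 4× images after 5 days. Relative viability is the ratio of treated-well to vehicle-well nuclei counts, with each value a median of duplicate plates.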

[1] = compound: NCC(=O)Nc1ccc(-n2nc(C(F)(F)F)cc2-c2ccc3c(ccc4ccccc43)c2)cc1 + CC(=O)Nc1cccc(-n2c(=O)n(C3CC3)c(=O)c3c(Nc4ccc(I)cc4F)n(C)c(=O)c(C)c32)c1 [Trametinib] (partner 0.02 µM)
Summary of the method: as §1

[2] = compound: NCC(=O)Nc1ccc(-n2nc(C(F)(F)F)cc2-c2ccc3c(ccc4ccccc43)c2)cc1 + CCNC(=O)c1noc(-c2cc(C(C)C)c(O)cc2O)c1-c1ccc(CN2CCOCC2)cc1 [Luminespib] (partner 0.01 µM)
Summary of the method: as §1

[3] = compound: NCC(=O)Nc1ccc(-n2nc(C(F)(F)F)cc2-c2ccc3c(ccc4ccccc43)c2)cc1 + C[C@]1(O)C[C@@H](c2nc(-c3ccc4ccc(-c5ccccc5)nc4c3)c3c(N)nccn32)C1 [Linsitinib] (partner 1 µM)
Summary of the method: as §1

PC-3 [JPC-3]
relative viability (kb NB 142-70 + Alpelisib; first compound 0.1 µM): 1.06 | relative viability (kb NB 142-70 + Alpelisib; first compound 1 µM): 1.04 | relative viability (kb NB 142-70 + Alpelisib; first compound 3.162 µM): 0.968 | relative viability ([1]; first compound 0.02 µM): 0.701 | relative viability ([1]; first compound 0.06325 µM): 0.776 | relative viability ([1]; first compound 0.2 µM): 0.715 | relative viability ([1]; first compound 0.6325 µM): 0.71 | relative viability ([1]; first compound 2 µM): 0.775 | relative viability ([2]; first compound 0.02 µM): 0.66 | relative viability ([2]; first compound 0.06325 µM): 0.709 | relative viability ([2]; first compound 0.2 µM): 0.728 | relative viability ([2]; first compound 0.6325 µM): 0.724 | relative viability ([2]; first compound 2 µM): 0.776 | relative viability ([3]; first compound 0.02 µM): 0.957 | relative viability ([3]; first compound 0.06325 µM): 0.977 | relative viability ([3]; first compound 0.2 µM): 0.992 | relative viability ([3]; first compound 0.6325 µM): 0.963 | relative viability ([3]; first compound 2 µM): 0.961
